Starred links: 1 amine or outer side, 2 acyl side, 3 side chain; linkers in the order of their positions; H or OH if unused. Non-standard residues stand in square brackets, D forms with d. Residues, ends and D or L forms follow the SMILES beside them. Groups on a side chain read outwards from the residue. *: point of attachment. C20 diacid = O=C(O)CCCCCCCCCCCCCCCCCCC(=O)*; γGlu = O=C(O)[C@H](CCC(=O)[*:2])N[*:1]; NMeI = CC[C@H](C)[C@H](NC)C(=O)O; AEEA = NCCOCCOCC(=O)O
Tests used:
human CRHR2b = target: T1, human CRHR2b (Homo sapiens, UniProt Q13324); test: human CRHR2b cell-based cAMP assay; details: cAMP assay, CHO cells transfected with human CRHR2b; mean ± SEM of runs; read-out: hCRHR2b Average EC50
T1 construct: expressed in transfected cells; host or cells: Chinese Hamster Ovary (CHO) cells, transient transfection
T1 sequence (Q13324 1-438 isoform Q13324-2): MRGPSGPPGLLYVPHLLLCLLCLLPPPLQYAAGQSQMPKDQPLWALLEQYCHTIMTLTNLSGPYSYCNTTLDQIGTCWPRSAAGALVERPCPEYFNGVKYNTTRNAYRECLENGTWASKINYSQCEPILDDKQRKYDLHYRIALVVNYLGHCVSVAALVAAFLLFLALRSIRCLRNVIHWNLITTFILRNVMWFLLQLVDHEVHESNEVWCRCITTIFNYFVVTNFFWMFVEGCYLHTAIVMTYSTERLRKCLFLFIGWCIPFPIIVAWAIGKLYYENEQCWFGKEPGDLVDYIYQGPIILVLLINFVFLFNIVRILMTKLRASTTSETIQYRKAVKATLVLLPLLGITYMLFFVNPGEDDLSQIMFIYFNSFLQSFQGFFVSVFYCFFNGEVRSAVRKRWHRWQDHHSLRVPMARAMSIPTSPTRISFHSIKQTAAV
Method in brief: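 ED50 values are means ± SEM over several runs, curve-fitted from cAMP in pmol, calibrated against unlabeled-cAMP standards. Detection was HTRF competition, ratio 665/620 nm, after 30 min agonist exposure at 37 °C.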

human CRHR1 = target: T2, human CRHR1 (Homo sapiens, UniProt P34998); test: human CRHR1 cell-based cAMP assay (Y79 cells); details: Y79 cells with endogenous human CRHR1, mean ± SEM of runs, read-out: hCRHR1 Average EC50
T2 construct: which expresses endogenous human CRHR1; host or cells: Y79 human retinoblastoma cells
T2 sequence (P34998 24-415): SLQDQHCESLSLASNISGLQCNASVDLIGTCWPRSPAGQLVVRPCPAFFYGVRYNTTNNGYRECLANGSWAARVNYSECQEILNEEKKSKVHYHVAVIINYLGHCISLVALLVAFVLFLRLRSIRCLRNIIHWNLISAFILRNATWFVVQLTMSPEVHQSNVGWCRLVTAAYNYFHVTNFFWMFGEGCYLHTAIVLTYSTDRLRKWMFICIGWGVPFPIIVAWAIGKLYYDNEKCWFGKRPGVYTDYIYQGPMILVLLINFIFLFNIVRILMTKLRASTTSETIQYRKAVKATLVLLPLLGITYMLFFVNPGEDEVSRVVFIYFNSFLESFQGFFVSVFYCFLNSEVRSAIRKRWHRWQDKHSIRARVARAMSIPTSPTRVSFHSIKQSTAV
Description: CRHR agonistic activity is measured in a cell-based cAMP assay. Serial dilutions of the test peptides are made in assay buffer containing Hank's Balanced Salt Solution (HBSS, without phenol red) supplemented with 20 mM HEPES and 0.05% lactalbumin enzymatic hydrolysate (LAH) (“assay buffer”). The highest concentration that is used starts from 1 μM in the human CRHR2b, whereas 100 μM starting concentration is used in the human CRHR1 assay. A one to three dilution of the test peptides is used in both assays.
The human Retinoblastoma cell line Y79 (ATCC #HTB-18), which expresses endogenous human CRHR1, is used in the human CRHR1 assay. The cells are grown in RPMI 1640 (Hyclone, #SH30255) containing 20% fetal bovine serum and 10 mM HEPES, in suspension culture. Cells are centrifuged to remove the culture media and washed once in HBSS supplemented with 20 mM HEPES. The cells are resuspended in the assay buffer and 20,000 cells are used per treatment in the human CRHR1 assay.
The cells are dispensed into Costar 96-well black polystyrene half area EIA/RIA plates (Corning Incorporated, Corning, N.Y.) followed by the addition of the diluted peptides, each at a volume of 20 μL. The agonist induced cAMP levels are detected using a HTRF cAMP Dynamic 2 kit (CisBio, Bedford, Mass.). After incubation at 37° C. for 30 min, the assay is stopped by cell lysis via the addition of 20 μL of d2-labeled cAMP and followed by 20 μL of cryptate-labeled anti-cAMP antibody, as described by the manufacturer. Cellular cAMP (as a result of agonist stimulation) competes with the d2-labeled cAMP for binding to the antibody. HTRF detection is performed on an Envision plate reader (Perkin Elmer Life and Analytical Sciences, Waltham, Mass.) by measuring ratiometric emission at 620 and 665 nm after excitation at 320 nm.
The data are converted to picomoles of cAMP using a standard curve obtained from the same assay performed with varying concentrations of unlabeled cAMP. Percent of the maximum activation of the cells is calculated using converted picomole cAMP data by comparing to the amount of cAMP produced by 1 μM human UCN2 for the human CRHR2b or 1 μM human UCN1 for the human CRHR1 assay. The data are analyzed using a Curve Fitting Tool to calculate ED50. Numeric values shown below in Table 1 represent the mean of multiple runs (number of runs shown in parentheses) following the mean value±SEM.

`CC[C@H](C)[C@H](NC)C(=O)N[C@H](C(=O)N[C@@H](CC(C)C)C(=O)N[C@@H](CO)C(=O)N[C@@H](CC(C)C)C(=O)N[C@@H](CC(=O)O)C(=O)N[C@H](C(=O)N1CCC[C@H]1C(=O)N[C@H](C(=O)NCC(=O)N[C@@H](CC(C)C)C(=O)N[C@@H](CC(C)C)C(=O)N[C@@H](CCC(N)=O)C(=O)N[C@H](C(=O)N[C@@H](CC(C)C)C(=O)N[C@@H](CC(C)C)C(=O)N[C@@H](CCC(=O)O)C(=O)N[C@@H](CCC(N)=O)C(=O)N[C@@H](CCC(=O)O)C(=O)N[C@@H](CCCCN)C(=O)N[C@@H](CCC(N)=O)C(=O)N[C@@H](CCC(=O)O)C(=O)N[C@@H](CCCCN)C(=O)N[C@@H](CCC(=O)O)C(=O)N[C@@H](CCCCN)C(=O)N[C@@H](CCC(N)=O)C(=O)N[C@@H](CCC(N)=O)C(=O)N[C@@H](C)C(=O)N[C@@H](CCCCNC(=O)COCCOCCNC(=O)COCCOCCNC(=O)CC[C@H](NC(=O)CC[C@H](NC(=O)CCCCCCCCCCCCCCCCCCC(=O)O)C(=O)O)C(=O)O)C(=O)N[C@H](C(=O)N[C@@H](CC(N)=O)C(=O)N[C@@H](C)C(=O)N[C@@H](CCC(=O)O)C(=O)N[C@H](C(=O)N[C@@H](CC(C)C)C(=O)N[C@@H](C)C(=O)N[C@@H](CCC(N)=O)C(=O)N[C@H](C(N)=O)C(C)C)[C@@H](C)CC)[C@@H](C)O)[C@@H](C)CC)[C@@H](C)CC)C(C)C)C(C)C` [Example 6] (H-[NMeI]VLSLDVPIGLLQILLEQEKQEKEKQQAK([AEEA-AEEA-γGlu-γGlu-C20 diacid])TNAEILAQV-NH2) was tested, and the EC50 (human CRHR2b) was 2.5 ± 1.06 nM and the EC50 (human CRHR1) was > 100 µM.

From patent US10894817B2, “Fatty acid modified urocortin-2 analogs for the treatment of diabetes and chronic kidney disease” (priority 2016, dated 2021)
